One experiment deals with IL-1β. As to the kind of experiment: Protein expression level in MDA-MB-468 cells: IL-1β. Type of experiment: cell-based, human. As to conditions: compared to the control (untreated) cells.
In another experiment the test system is BCL-2. Briefly: Protein expression level in MDA-MB-468 cells: BCL-2. The format is cell-based, human. Particulars: compared to the control (untreated) cells.
The test system of the next experiment is cervical cancer (HeLa). As to the kind of experiment: Antitumor activity (growth inhibition, cytotoxic IC50) against HeLa. The format is cell-based. Particulars: Homo sapiens; for inhibition at 100 µg/mL: 100 μg/mL, read-out: growth inhibition percentage.
For experiment [1], the system named is human non-small cell lung cancer (A549). Briefly: Antitumor activity (growth inhibition, cytotoxic IC50) against A549. Particulars: for inhibition at 100 µg/mL: 100 μg/mL, read-out: growth inhibition percentage. The format is cell-based.
The subject of a further experiment is MMP2. Briefly: Protein expression level in MDA-MB-468 cells: MMP2. Type of experiment: cell-based, human. Particulars: compared to the control (untreated) cells.
For experiment [2], the system named is triple-negative breast cancer (MDA-MB-468). Briefly: Antitumor activity (growth inhibition, cytotoxic IC50) against MDA-MB-468. The format is cell-based. As to conditions: Homo sapiens; for inhibition at 100 µg/mL: 100 μg/mL, read-out: growth inhibition percentage.
For experiment [3], the system named is colorectal carcinoma (HCT116). Briefly: Antitumor activity (growth inhibition) against HCT116. The format is cell-based. Particulars: Homo sapiens, HCT-116, 100 μg/mL, read-out: growth inhibition percentage.
The test system of the next experiment is MMP9. Briefly: Protein expression level in MDA-MB-468 cells: MMP9. Type of experiment: cell-based, human. Particulars: compared to the control (untreated) cells.
A further experiment concerns p53. Briefly: Protein expression level in MDA-MB-468 cells: p53. The format is cell-based, human. As to conditions: in comparison to the control (untreated) cells.
Experiment [4] concerns pharynx squamous carcinoma (FaDu). Briefly: Antitumor activity (growth inhibition, cytotoxic IC50) against FaDu. As to conditions: Homo sapiens; for inhibition at 100 µg/mL: 100 μg/mL, read-out: growth inhibition percentage. Type of experiment: cell-based.
The next experiment has as its system Caspase 8. As to the kind of experiment: Protein expression level in MDA-MB-468 cells: Caspase 8. The format is cell-based, human. As to conditions: in comparison to the control (untreated) cells.
A further experiment concerns BAX. As to the kind of experiment: Protein expression level in MDA-MB-468 cells: BAX. The format is cell-based, human. Particulars: in comparison to the control (untreated) cells.
The subject of another experiment is Caspase 9. As to the kind of experiment: Protein expression level in MDA-MB-468 cells: Caspase 9. As to conditions: in comparison to the control (untreated) cells. The format is cell-based, human.
The next experiment concerns Caspase 3. Briefly: Protein expression level in MDA-MB-468 cells: Caspase 3. The format is cell-based, human. As to conditions: in comparison to the control (untreated) cells.
The subject of the next experiment is Caspase 6. As to the kind of experiment: Protein expression level in MDA-MB-468 cells: Caspase 6. As to conditions: in comparison to the control (untreated) cells. Type of experiment: cell-based, human.
A further experiment has as its system prostate cancer (PC3). Briefly: Antitumor activity (growth inhibition) against PC3. The format is cell-based. As to conditions: Homo sapiens, 100 μg/mL, read-out: growth inhibition percentage.
The next experiment has as its system COX-2. As to the kind of experiment: Protein expression level in MDA-MB-468 cells: COX-2. Type of experiment: cell-based, human. Particulars: compared to the control (untreated) cells.
The test system of experiment [5] is human oral epithelial normal cell line (OEC). As to the kind of experiment: Growth inhibition of normal cell line OEC. Type of experiment: cell-based.
The subject of the next experiment is IL-6. As to the kind of experiment: Protein expression level in MDA-MB-468 cells: IL-6. The format is cell-based, human. Particulars: compared to the control (untreated) cells.
Where [6] appears, read: read-out: cytotoxic inhibitory concentration 50 (IC50).

Converted amounts (≈) assume the structure as drawn.

Regarding `N#C[Se]CCCN1C(=O)c2ccccc2C1=O` [DS128, 2-(3-selenocyanatopropyl) isoindoline-1,3-dione], the “downregulation of IL-1β” value in the experiment on IL-1β is 0.42 times. Also, the “downregulation of BCL-2 protein” value in the experiment on BCL-2 is given as 0.44 times. For the same compound, the inhibition at 100 µg/mL with cervical cancer (HeLa) was found to be 75.1%; in experiment [1], 77.7%; in experiment [2] it was 86%; in experiment [3], 78.5%; in experiment [4], 83.8%; in the experiment on prostate cancer (PC3), 83.2%. Moreover, the IC50 came out at 5.36 µg/mL (≈ 18.3 µM) with cervical cancer (HeLa) (setting [6]), 5.4 µg/mL (≈ 18.4 µM) in experiment [1] (setting [6]), 4.33 µg/mL (≈ 14.8 µM) in experiment [2] (setting [6]) and 5.46 µg/mL (≈ 18.6 µM) in experiment [4] (setting [6]). In addition, in the experiment with MMP2, the “downregulation of MMP2 protein” value stood at 0.43 times. The “downregulation of MMP9 protein” value in the experiment with MMP9 came out at 0.47 times. In addition, in the experiment on p53, the “upregulation of p53 protein” value is 1.77 times. In the experiment with Caspase 8, the “upregulation of Caspase 8 protein” value turned out to be 6.71 times. Moreover, the “upregulation of BAX protein” value in the experiment with BAX was found to be 1.68 times. In addition, the “upregulation of Caspase 9 protein” value in the experiment with Caspase 9 came to 2.00 times. Moreover, in the experiment with Caspase 3, the “upregulation of Caspase 3 protein” value was 1.27 times. Further, in the experiment on Caspase 6, the “upregulation of Caspase 6 protein” value is given as 2.46 times. Moreover, the “downregulation of COX-2” value in the experiment with COX-2 is on record as 0.48 times. Moreover, the growth inhibition percentage in [5] was 40.02%. The “downregulation of IL-6” value with IL-6 worked out at 0.40 times.
With `COc1cccc2c1C(=O)c1c(O)c3c(c(O)c1C2=O)C[C@@](O)(C(=O)CO)C[C@@H]3O[C@H]1C[C@H](N)[C@H](O)[C@H](C)O1` [doxorubicin, reference compound], the inhibition at 100 µg/mL in the experiment on cervical cancer (HeLa) is 92.7%; in [1], 86.4%; in experiment [2] it was 96%; in experiment [3], 71%; in [4], 92.9%; with prostate cancer (PC3), 89.9%. This compound also yielded a growth inhibition percentage in [5] of 57.89%.

For the origin of these results see patent US12285406B1, “Method of treating cancer with a selenide” (priority 2024, dated 2025).
